These results are taken from ChEMBL document CHEMBL5325465, “Identification of small-molecule inhibitors of human MUS81-EME1/2 by FRET-based high-throughput screening” (Bioorg Med Chem, 2023).

The target of assay [1] is T1, MUS81-ECE1 (Homo sapiens) (UniProt P42892+Q96NY9). Kind of assay: Binding affinity to human GST-tagged MUS81-[…] expressed in Escherichia coli BL21(DE3)Rosetta2 cells assessed as Kon by Surface plasmon resonance analysis.
Assay [2] deals with T1, MUS81-ECE1 (Homo sapiens). Kind of assay: Binding affinity to human GST-tagged MUS81-[…] expressed in Escherichia coli BL21(DE3)Rosetta2 cells assessed as Koff by Surface plasmon resonance analysis. (In SPR one partner is held on a chip, and binding of the other changes the refractive index at the surface.)
Assay [3] concerns the target T2, MUS81-ECE2 (Homo sapiens) (UniProt P0DPD6+Q96NY9). Kind of assay: Binding affinity to human GST-tagged MUS81-[…] expressed in Escherichia coli BL21(DE3)Rosetta2 cells assessed as Kon by Surface plasmon resonance analysis.
The target in assay [4] is T2, MUS81-ECE2 (Homo sapiens). Kind of assay: Binding affinity to human GST-tagged MUS81-[…] expressed in Escherichia coli BL21(DE3)Rosetta2 cells assessed as Koff by Surface plasmon resonance analysis.
Assay [5] concerns the target T3, MUS81-ECE2 (Homo sapiens, UniProt P0DPD6+Q96NY9).
T3 sequence (P0DPD6 whole entry): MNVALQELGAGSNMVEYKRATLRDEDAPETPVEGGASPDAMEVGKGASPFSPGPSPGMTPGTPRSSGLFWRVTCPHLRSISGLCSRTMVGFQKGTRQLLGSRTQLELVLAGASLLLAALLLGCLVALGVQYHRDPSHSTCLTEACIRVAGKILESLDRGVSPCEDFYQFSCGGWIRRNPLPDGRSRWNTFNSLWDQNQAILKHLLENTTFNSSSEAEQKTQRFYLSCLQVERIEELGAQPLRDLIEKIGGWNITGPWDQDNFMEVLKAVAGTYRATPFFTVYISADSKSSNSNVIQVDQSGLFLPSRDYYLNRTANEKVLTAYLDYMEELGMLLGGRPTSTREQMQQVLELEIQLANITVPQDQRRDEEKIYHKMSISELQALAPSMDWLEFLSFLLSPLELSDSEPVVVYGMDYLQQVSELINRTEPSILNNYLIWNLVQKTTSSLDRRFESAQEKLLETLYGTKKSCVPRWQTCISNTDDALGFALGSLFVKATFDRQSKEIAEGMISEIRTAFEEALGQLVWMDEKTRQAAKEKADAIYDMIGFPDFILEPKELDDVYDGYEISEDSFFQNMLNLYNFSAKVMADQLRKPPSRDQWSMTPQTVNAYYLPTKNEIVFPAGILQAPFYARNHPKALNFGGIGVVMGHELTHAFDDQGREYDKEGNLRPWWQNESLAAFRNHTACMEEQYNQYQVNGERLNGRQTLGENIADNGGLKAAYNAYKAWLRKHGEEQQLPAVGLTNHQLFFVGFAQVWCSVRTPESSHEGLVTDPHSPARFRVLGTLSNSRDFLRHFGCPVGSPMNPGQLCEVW
T3 sequence (Q96NY9 whole entry): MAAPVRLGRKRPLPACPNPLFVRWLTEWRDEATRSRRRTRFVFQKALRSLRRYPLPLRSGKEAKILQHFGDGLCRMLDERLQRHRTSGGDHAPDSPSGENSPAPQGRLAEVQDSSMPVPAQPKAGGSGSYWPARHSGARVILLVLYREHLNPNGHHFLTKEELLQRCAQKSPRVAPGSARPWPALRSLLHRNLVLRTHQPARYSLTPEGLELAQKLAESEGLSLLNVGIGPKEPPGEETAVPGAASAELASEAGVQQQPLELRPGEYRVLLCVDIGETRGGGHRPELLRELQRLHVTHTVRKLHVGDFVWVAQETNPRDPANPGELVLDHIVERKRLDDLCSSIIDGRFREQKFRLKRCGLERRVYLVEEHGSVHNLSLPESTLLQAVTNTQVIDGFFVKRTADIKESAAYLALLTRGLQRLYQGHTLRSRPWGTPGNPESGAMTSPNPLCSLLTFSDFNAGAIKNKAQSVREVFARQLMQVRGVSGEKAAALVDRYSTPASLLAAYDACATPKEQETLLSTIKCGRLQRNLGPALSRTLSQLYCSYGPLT
The assay is described as follows: Binding affinity to human GST-tagged MUS81-[…] expressed in Escherichia coli BL21(DE3)Rosetta2 cells assessed as dissociation constant by Surface plasmon resonance analysis.

Assay [6] concerns the target T1, MUS81-ECE1 (Homo sapiens). Kind of assay: Inhibition of human GST-tagged MUS81-[…] expressed in Escherichia coli BL21(DE3)Rosetta2 cells using 3' FLAP as substrate at 40 uM.
Assay [7] deals with T1, MUS81-ECE1 (Homo sapiens). The assay is described as follows: Inhibition of human GST-tagged MUS81-[…] expressed in Escherichia coli BL21(DE3)Rosetta2 cells using nDS as substrate at 40 uM.
For assay [8], the system named is HeLa. Kind of assay: Inhibition of bleomycin-induced DNA-double stranded breaks in human HeLa cells assessed as reduction in gammaH2AX phosphorylation at serine 139 residue at 20 uM incubated for 1 hr by hoechst 33342 staining based immunofluorescence microscopic analysis. Format: functional, cell-based.
The subject of assay [9] is HeLa. Kind of assay: Inhibition of bleomycin-induced DNA-double stranded breaks in human HeLa cells assessed as reduction in gammaH2AX level by Western blot analysis. Format: functional, cell-based. In general terms: A western blot detects proteins with antibodies after separation by electrophoresis.
The test system of assay [10] is A549. Kind of assay: Chemosensitivity of bleomycin-treated human A549 cells assessed as reduction in cell viability at 0.1 to 100 uM incubated for 24 hrs CCK-8 assay. Format: functional, cell-based. The following applies: dose 0.1-100 µM. On the technique in general: Tetrazolium dyes change colour on reduction, which living cells bring about.
The subject of assay [11] is A549. The assay is described as follows: Chemosensitivity of cisplatin-treated human A549 cells assessed as reduction in cell viability at 0.1 to 100 uM incubated for 24 hrs CCK-8 assay. Format: functional, cell-based. Conditions: dose 0.1-100 µM.
For assay [12], the system named is HeLa. Kind of assay: Chemosensitivity of bleomycin-treated human HeLa cells assessed as reduction in cell viability at 0.1 to 100 uM incubated for 24 hrs CCK-8 assay. Type of assay: functional, cell-based. The following applies: dose 0.1-100 µM.
Assay [13] concerns HeLa. The assay is described as follows: Chemosensitivity of cisplatin-treated human HeLa cells assessed as reduction in cell viability at 0.1 to 100 uM incubated for 24 hrs CCK-8 assay. Type of assay: functional, cell-based. The following applies: dose 0.1-100 µM.
For assay [14], the system named is HepG2. Kind of assay: Chemosensitivity of bleomycin-treated human HepG2 cells assessed as reduction in cell viability at 0.1 to 100 uM incubated for 24 hrs CCK-8 assay. Type of assay: functional, cell-based. Conditions: dose 0.1-100 µM.
The subject of assay [15] is HepG2. Kind of assay: Chemosensitivity of cisplatin-treated human HepG2 cells assessed as reduction in cell viability at 0.1 to 100 uM incubated for 24 hrs CCK-8 assay. Format: functional, cell-based. Conditions: dose 0.1-100 µM.
Assay [16] has as its target T3, MUS81-ECE2. The assay is described as follows: Inhibition of human GST-tagged MUS81-[…] expressed in Escherichia coli BL21(DE3)Rosetta2 cells incubated for 15 mins by FRET based assay.
Assay [17] concerns the target T1, MUS81-ECE1 (Homo sapiens). The assay is described as follows: Inhibition of human GST-tagged MUS81-[…] expressed in Escherichia coli BL21(DE3)Rosetta2 cells using 3' FLAP as substrate incubated for 15 mins by FRET based assay. Conditions: dose 0.2-20 µM.
The target in assay [18] is T1, MUS81-ECE1 (Homo sapiens). Kind of assay: Inhibition of human GST-tagged MUS81-[…] expressed in Escherichia coli BL21(DE3)Rosetta2 cells using nDS as substrate incubated for 15 mins by FRET based assay. Conditions: dose 0.2-20 µM.
In assay [19] the target is T1, MUS81-ECE1 (Homo sapiens). The assay is described as follows: Inhibition of human GST-tagged MUS81-[…] expressed in Escherichia coli BL21(DE3)Rosetta2 cells using nHJ as substrate incubated for 15 mins by FRET based assay. Conditions: dose 0.2-20 µM.
The target in assay [20] is T2, MUS81-ECE2 (Homo sapiens). Kind of assay: Inhibition of human GST-tagged MUS81-[…] expressed in Escherichia coli BL21(DE3)Rosetta2 cells using 3' FLAP as substrate incubated for 15 mins by FRET based assay. Conditions: dose 0.2-20 µM.
Assay [21] has as its target T2, MUS81-ECE2 (Homo sapiens). The assay is described as follows: Inhibition of human GST-tagged MUS81-[…] expressed in Escherichia coli BL21(DE3)Rosetta2 cells using nDS as substrate incubated for 15 mins by FRET based assay. The following applies: dose 0.2-20 µM.
Assay [22] concerns the target T2, MUS81-ECE2 (Homo sapiens). Kind of assay: Inhibition of human GST-tagged MUS81-[…] expressed in Escherichia coli BL21(DE3)Rosetta2 cells using nHJ as substrate incubated for 15 mins by FRET based assay. Conditions: dose 0.2-20 µM.
For assay [23], the target named is T1, MUS81-ECE1 (Homo sapiens). Kind of assay: Binding affinity to human GST-tagged MUS81-[…] expressed in Escherichia coli BL21(DE3)Rosetta2 cells at more than 5 uM using nDS as substrate incubated for 30 mins by electrophoretic mobility shift assay.
Assay [24] relates to MDA-MB-231. The assay is described as follows: Chemosensitivity of bleomycin-treated human MDA-MB-231 cells assessed as reduction in cell viability at 0.1 to 100 uM incubated for 24 hrs CCK-8 assay. Type of assay: functional, cell-based. Conditions: dose 0.1-100 µM.
The test system of assay [25] is MDA-MB-231. Kind of assay: Chemosensitivity of cisplatin-treated human MDA-MB-231 cells assessed as reduction in cell viability at 0.1 to 100 uM incubated for 24 hrs CCK-8 assay. The following applies: dose 0.1-100 µM. Format: functional, cell-based.

Active and inactive are the calls of the source. The rule behind the calls is not given here.

`O=C(N/N=C/c1ccc(O)c(O)c1)c1cc2ccccc2cc1O` [DYNASORE]: the K in assay [1] amounted to 934 M⁻¹ s⁻¹; in assay [2] it was 0.005 s⁻¹; in assay [3], 1390 M⁻¹ s⁻¹; in [4], 0.005 s⁻¹. Moreover, at MUS81-ECE2 [5], the Kd worked out at 4.18 µM. Moreover, the inhibition result in assay [6] and in [7] was “Active” each time. Besides, the inhibition entry with HeLa [8] and with HeLa [9] was “inactive” each time. The outcome with A549 [10] and with A549 [11] was Active. Further, the outcome in the assay on HeLa [12], in the assay on HeLa [13], with HepG2 [14] and in the assay on HepG2 [15] was inactive.
`O=C(N/N=C/c1cc(O)c(O)cc1O)c1cc2ccccc2cc1O` displayed an IC50 on MUS81-ECE2 [16] of 2.9 µM. The inhibition result in [17], in [18], in assay [19], in assay [20], in assay [21] and in assay [22] was “Dose-Dependent Effect” in each case. In addition, the K was 6980 M⁻¹ s⁻¹ in [1], 0.004 s⁻¹ in [2], 6420 M⁻¹ s⁻¹ in [3] and 0.003 s⁻¹ in [4]. On MUS81-ECE2 [5], the Kd came to 0.605 µM. The result (in assay [23]; in the assay with MDA-MB-231 [24]; with MDA-MB-231 [25]) was Active. Besides, the inhibition entry in the assay on HeLa [8] and in the assay on HeLa [9] was “Active” each time. The outcome with HeLa [12], in the assay on HeLa [13], with HepG2 [14] and in the assay on HepG2 [15] was inactive.

As a reminder, the Kd is the equilibrium constant for the complex coming apart. The IC50 is the concentration that gives 50% inhibition. Read a high IC50 as lower potency.
